These results are taken from US8846947B2, “Benzimidazoles and related analogs as sirtuin modulators” (GlaxoSmithKline LLC, priority 2008, dated 2014).

Each structure is given as a SMILES string.

This experiment has as its target T1, SIRT1 (Homo sapiens, UniProt Q96EB6).
T1 sequence (Q96EB6 1-747): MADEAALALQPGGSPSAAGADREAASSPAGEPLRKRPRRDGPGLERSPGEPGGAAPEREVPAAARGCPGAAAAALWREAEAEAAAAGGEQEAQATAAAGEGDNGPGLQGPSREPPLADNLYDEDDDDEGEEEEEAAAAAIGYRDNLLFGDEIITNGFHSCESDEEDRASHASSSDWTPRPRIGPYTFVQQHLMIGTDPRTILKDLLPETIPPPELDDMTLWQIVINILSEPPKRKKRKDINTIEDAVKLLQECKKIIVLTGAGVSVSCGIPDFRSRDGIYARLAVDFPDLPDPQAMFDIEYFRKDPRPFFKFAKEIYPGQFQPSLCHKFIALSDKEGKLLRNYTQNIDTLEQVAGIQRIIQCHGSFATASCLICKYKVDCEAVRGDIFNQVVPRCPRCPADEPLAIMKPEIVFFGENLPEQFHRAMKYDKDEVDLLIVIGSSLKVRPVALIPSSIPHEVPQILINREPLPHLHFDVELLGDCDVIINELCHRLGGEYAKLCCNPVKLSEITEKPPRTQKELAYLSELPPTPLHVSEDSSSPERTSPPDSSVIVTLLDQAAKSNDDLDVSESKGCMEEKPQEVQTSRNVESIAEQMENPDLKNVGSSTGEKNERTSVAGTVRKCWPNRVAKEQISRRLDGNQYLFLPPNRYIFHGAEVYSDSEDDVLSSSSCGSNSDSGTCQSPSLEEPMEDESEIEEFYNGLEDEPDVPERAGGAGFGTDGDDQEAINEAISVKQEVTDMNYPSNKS
In words: Mass spectrometry based SIRT1 deacetylase activation assay (acetylated p53-derived peptide substrate). It is filed as biochemical. To be noted: 0.5 μM peptide substrate, 120 μM βNAD+, 10 nM SIRT1, 25 minutes at 25° C.
For `O=C(Nc1cccnn1)c1cccc2[nH]c(-c3ccc(N4CCCC4)cc3C(F)F)nc12` [Compound 775], the EC1.5 entry is “A (EC1.5<1.0 uM)” and the “Fold Act. (percent maximum fold activation)” value is “A (Fold activation >200%)”.

On to `O=C(Nc1ccncn1)c1cccc2[nH]c(-c3ccc(N4CCCC4)cc3C(F)F)nc12` [Compound 776], for which the EC1.5 entry is reported as “A (EC1.5<1.0 uM)” and the “Fold Act. (percent maximum fold activation)” value is recorded as “A (Fold activation >200%)”.

Consider `O=C(Nc1ccc(OC[C@H](O)CO)cc1)c1cccc2[nH]c(-c3cccc(N4CCOCC4)c3)nc12` [Compound 777], for which the EC1.5 result is on record as “A (EC1.5<1.0 uM)” and the “Fold Act. (percent maximum fold activation)” value is “A (Fold activation >200%)”.

For `O=C(Nc1ccc(OC[C@H](O)CO)cc1)c1cccc2[nH]c(-c3cccc(N4CCCC4)c3)nc12` [Compound 778], the EC1.5 entry is “A (EC1.5<1.0 uM)” and the “Fold Act. (percent maximum fold activation)” value is “A (Fold activation >200%)”.

On to `O=C(Nc1cccc(OC[C@H](O)CO)c1)c1cccc2[nH]c(-c3ccc(N4CC[C@H](F)C4)cc3C(F)(F)F)nc12` [Compound 779], for which the EC1.5 result is “A (EC1.5<1.0 uM)” and the “Fold Act. (percent maximum fold activation)” value is given as “A (Fold activation >200%)”.

As for `O=C(Nc1ncc(CN2CCOCC2)s1)c1cccc2[nH]c(-c3ccccc3C(F)(F)F)nc12` [Compound 780, N-(5-(morpholinomethyl)thiazol-2-yl)-2-(2-(trifluoromethyl)phenyl)-1H-benzo[d]imidazole-4-carboxamide], the EC1.5 entry is “C (EC1.5 >25 uM)” and the “Fold Act. (percent maximum fold activation)” value is on record as “B (Fold Activation <200%)”.

With `O=C(Nc1cccc(OC[C@H](O)CO)c1)c1cccc2[nH]c(-c3cccc(F)c3)nc12` [Compound 781], the EC1.5 result is listed as “A (EC1.5<1.0 uM)” and the “Fold Act. (percent maximum fold activation)” value was “A (Fold activation >200%)”.

Consider `O=C(Nc1cccc(OC[C@H](O)CO)c1)c1cccc2[nH]c(-c3cccc(Cl)c3)nc12` [Compound 782], for which the EC1.5 entry is listed as “A (EC1.5<1.0 uM)” and the “Fold Act. (percent maximum fold activation)” value is recorded as “A (Fold activation >200%)”.

`O=C(Nc1cccc(OC[C@H](O)CO)c1)c1cccc2[nH]c(-c3ccncc3)nc12` [Compound 783]: the EC1.5 entry was “A (EC1.5<1.0 uM)” and the “Fold Act. (percent maximum fold activation)” value is reported as “A (Fold activation >200%)”.

`O=C(Nc1cccc(OC[C@H](O)CO)c1)c1cccc2[nH]c(-c3ccccc3F)nc12` [Compound 784]: the EC1.5 entry is “A (EC1.5<1.0 uM)” and the “Fold Act. (percent maximum fold activation)” value was “A (Fold activation >200%)”.

In the case of `O=C(Nc1cccc(OC[C@H](O)CO)c1)c1cccc2[nH]c(-c3cc(F)ccc3F)nc12` [Compound 785], the EC1.5 entry is listed as “A (EC1.5<1.0 uM)” and the “Fold Act. (percent maximum fold activation)” value is on record as “A (Fold activation >200%)”.

For the compound `O=C(Nc1cccc(OC[C@H](O)CO)c1)c1cccc2[nH]c(-c3cc(F)cc(F)c3)nc12` [Compound 786], the EC1.5 result was “A (EC1.5<1.0 uM)” and the “Fold Act. (percent maximum fold activation)” value is listed as “A (Fold activation >200%)”.

Consider `O=C(Nc1ccc(OC[C@@H](O)CO)cc1)c1cccc2[nH]c(-c3cccc(N4CCOCC4)c3)nc12` [Compound 787], for which the EC1.5 result was “A (EC1.5<1.0 uM)” and the “Fold Act. (percent maximum fold activation)” value was “A (Fold activation >200%)”.

For `O=C(Nc1ccc(OC[C@@H](O)CO)cc1)c1cccc2[nH]c(-c3cccc(N4CCCC4)c3)nc12` [Compound 788], the EC1.5 entry is “A (EC1.5<1.0 uM)” and the “Fold Act. (percent maximum fold activation)” value is reported as “A (Fold activation >200%)”.

Regarding `Cc1nc(C)c(-c2nc3c(C(=O)Nc4ccc(OC[C@@H](O)CO)cc4)cccc3[nH]2)s1` [Compound 789], the EC1.5 entry is “A (EC1.5<1.0 uM)” and the “Fold Act. (percent maximum fold activation)” value is “A (Fold activation >200%)”.

With `Cc1cnc(NC(=O)c2cc(N3CCCC3)cc3[nH]c(-c4ccccc4C(F)F)nc23)s1` [Compound 790], the EC1.5 result is reported as “A (EC1.5<1.0 uM)” and the “Fold Act. (percent maximum fold activation)” value was “A (Fold activation >200%)”.

As to `O=C(Nc1ccccn1)c1cc(N2CCCC2)cc2[nH]c(-c3ccccc3C(F)F)nc12` [Compound 791], the EC1.5 entry was “A (EC1.5<1.0 uM)” and the “Fold Act. (percent maximum fold activation)” value is “A (Fold activation >200%)”.

With `O=C(Nc1cccnc1)c1cc(N2CCCC2)cc2[nH]c(-c3ccccc3C(F)F)nc12` [Compound 792], the EC1.5 result is on record as “A (EC1.5<1.0 uM)” and the “Fold Act. (percent maximum fold activation)” value was “A (Fold activation >200%)”.

Consider `Cc1cc(OC[C@H](O)CO)ccc1-c1nc2c(C(=O)Nc3nccs3)cccc2[nH]1` [Compound 793], for which the EC1.5 result is “A (EC1.5<1.0 uM)” and the “Fold Act. (percent maximum fold activation)” value is “A (Fold activation >200%)”.

Take `O=C(Nc1cccc(OCC(O)CO)c1)c1cccc2[nH]c(-c3cccnc3)nc12` (centres unmarked) [Compound 794]: the EC1.5 entry was “A (EC1.5<1.0 uM)” and the “Fold Act. (percent maximum fold activation)” value was “A (Fold activation >200%)”.

`O=C(Nc1nc(CN2CCOCC2)cs1)c1cccc2[nH]c(-c3cccnc3)nc12` [Compound 795]: the EC1.5 result was “C (EC1.5 >25 uM)” and the “Fold Act. (percent maximum fold activation)” value is “B (Fold Activation <200%)”.

As to `O=C(Nc1nc(CN2CCOCC2)cs1)c1cccc2[nH]c(-c3cccc(Cl)c3)nc12` [Compound 796], the EC1.5 entry was “B (EC1.5 1-25 uM)” and the “Fold Act. (percent maximum fold activation)” value is reported as “B (Fold Activation <200%)”.

Regarding `O=C(Nc1ccc(OC[C@H](O)CO)cc1)c1cccc2[nH]c(-c3cccnc3)nc12` [Compound 797], the EC1.5 result is listed as “A (EC1.5<1.0 uM)” and the “Fold Act. (percent maximum fold activation)” value is “A (Fold activation >200%)”.

For `Cc1nc(C)c(-c2nc3c(C(=O)Nc4ccc(OC[C@H](O)CO)cc4)cccc3[nH]2)s1` [Compound 798], the EC1.5 entry is given as “A (EC1.5<1.0 uM)” and the “Fold Act. (percent maximum fold activation)” value is “A (Fold activation >200%)”.

In the case of `O=C(Nc1nccs1)c1cncc2[nH]c(-c3ccc(N4CCCC4)cc3C(F)F)nc12` [Compound 799], the EC1.5 result is reported as “A (EC1.5<1.0 uM)” and the “Fold Act. (percent maximum fold activation)” value was “A (Fold activation >200%)”.

With `Cc1cnc(NC(=O)c2cncc3[nH]c(-c4ccc(N5CCCC5)cc4C(F)F)nc23)s1` [Compound 800], the EC1.5 result is “A (EC1.5<1.0 uM)” and the “Fold Act. (percent maximum fold activation)” value was “A (Fold activation >200%)”.

As for `O=C(Nc1ccccn1)c1cncc2[nH]c(-c3ccc(N4CCCC4)cc3C(F)F)nc12` [Compound 801], the EC1.5 entry is on record as “A (EC1.5<1.0 uM)” and the “Fold Act. (percent maximum fold activation)” value is listed as “A (Fold activation >200%)”.

Take `O=C(Nc1cccnn1)c1cncc2[nH]c(-c3ccc(N4CCCC4)cc3C(F)F)nc12` [Compound 802]: the EC1.5 entry is “A (EC1.5<1.0 uM)” and the “Fold Act. (percent maximum fold activation)” value is “A (Fold activation >200%)”.

Regarding `O=C(Nc1ccncn1)c1cncc2[nH]c(-c3ccc(N4CCCC4)cc3C(F)F)nc12` [Compound 803], the EC1.5 result is on record as “A (EC1.5<1.0 uM)” and the “Fold Act. (percent maximum fold activation)” value is recorded as “A (Fold activation >200%)”.

Turning to `O=C(Nc1nccs1)c1cncc2[nH]c(-c3ccc(N4CCOCC4)cc3C(F)F)nc12` [Compound 804], the EC1.5 result is reported as “A (EC1.5<1.0 uM)” and the “Fold Act. (percent maximum fold activation)” value is on record as “A (Fold activation >200%)”.

In the case of `Cc1cnc(NC(=O)c2cncc3[nH]c(-c4ccc(N5CCOCC5)cc4C(F)F)nc23)s1` [Compound 805], the EC1.5 result was “A (EC1.5<1.0 uM)” and the “Fold Act. (percent maximum fold activation)” value is listed as “A (Fold activation >200%)”.

With `O=C(Nc1ccccn1)c1cncc2[nH]c(-c3ccc(N4CCOCC4)cc3C(F)F)nc12` [Compound 806], the EC1.5 entry is reported as “A (EC1.5<1.0 uM)” and the “Fold Act. (percent maximum fold activation)” value is on record as “A (Fold activation >200%)”.

`O=C(Nc1cccnc1)c1cncc2[nH]c(-c3ccc(N4CCOCC4)cc3C(F)F)nc12` [Compound 807]: the EC1.5 entry is given as “A (EC1.5<1.0 uM)” and the “Fold Act. (percent maximum fold activation)” value was “A (Fold activation >200%)”.

As for `O=C(Nc1nccs1)c1cncc2nc(-c3ccc(OC[C@H](O)CO)cc3C(F)F)[nH]c12` [Compound 808], the EC1.5 entry was “A (EC1.5<1.0 uM)” and the “Fold Act. (percent maximum fold activation)” value was “A (Fold activation >200%)”.

For `Cc1cnc(NC(=O)c2cncc3nc(-c4ccc(OC[C@H](O)CO)cc4C(F)F)[nH]c23)s1` [Compound 809], the EC1.5 result is given as “A (EC1.5<1.0 uM)” and the “Fold Act. (percent maximum fold activation)” value is “A (Fold activation >200%)”.

For `O=C(Nc1ccccn1)c1cncc2nc(-c3ccc(OC[C@H](O)CO)cc3C(F)F)[nH]c12` [Compound 810], the EC1.5 entry is reported as “A (EC1.5<1.0 uM)” and the “Fold Act. (percent maximum fold activation)” value was “A (Fold activation >200%)”.

As for `O=C(Nc1cccc(OC[C@H](O)CO)c1)c1cc(F)cc2[nH]c(-c3ccccc3C(F)F)nc12` [Compound 811, (R)-2-(2-(difluoromethyl)phenyl)-N-(3-(2,3-dihydroxypropoxy)phenyl)-6-fluoro-1H-benzo[d]imidazole-4-carboxamide], the EC1.5 entry was “A (EC1.5<1.0 uM)” and the “Fold Act. (percent maximum fold activation)” value is “A (Fold activation >200%)”.
